Measured values published in US7897637B2, “Methods of using flavonoids to enhance memory” (The Salk Institute for Biological Studies, priority 2006, dated 2011).
“Also recorded” adds a separate entry of the source. Read-outs that look alike come from different tables or passages of the source.

What was measured:
HT22 cells = assay: Protection of HT22 cells from oxidative glutamate toxicity (MTT assay); assay type: cell-based, mouse; conditions: for effect of higher levels of BSO on protection: 5 mM glutamate + 1 mM BSO; for EC50 / Emax: 5 mM glutamate, MTT assay; for EC50: read-out: EC50 (μM), protection from oxidative-stress induced death; for Emax: HT-22, read-out: Maximal Efficacy, protection from oxidative-stress induced death
Excerpt: Fisetin is effective at protecting nerve cells from oxidative stress-induced death (Ishige et al., Free Radic. Biol. Med., 30:433-446, 2001). This Example illustrates the structure-activity relationship between fisetin derivatives and neuroprotection in a model of oxidative glutamate toxicity using mouse HT22 cells. This pathway of programmed cell death is initiated by the addition of glutamate to the extracellular medium. Glutamate inhibits the uptake of cystine which is required for glutathione (GSH) biosynthesis, resulting in the depletion of GSH in neurons (for review see Tan et al., Curr. Top. Med. Chem., 1:497-506, 2001). Subsequently, this decrease in cellular GSH results in the production of reactive oxygen species (ROS) by mitochondria. The ROS accumulation then causes Ca^+2 influx from the extracellular medium which leads to cell death.
HT22 cells were untreated (Ct) or treated with 10 μM fisetin, 25 μM 3,3′-DHF, 25 μM 3,4′-DHF, 2.5 μM 3′,4′-DHF, 2.5 μM 3,3′,4′-THF 25 μM 3,7,3′-THF, 25 μM 3,7,4′-THF or 10 μM 7,3′,4′-THF in the presence of 5 mM glutamate±50 μM PD98059. Twenty four (24) hours later cell survival was measured by the MTT assay.
HT22 cells were untreated (Ct) or treated with 10 μM fisetin, 25 μM 3,3′-DHF. […] Protection by all of the other flavonoids was unaffected by BSO.
Cell viability was determined by a modified version of the 3-(4,5-dimethylthiazol-2-yl)-2,5-diphenyl tetrazolium bromide (MTT) assay based on the standard procedure (Hansen et al., J. Immunol. Meth., 119:203-10, 1989). Briefly, cells were seeded onto 96-well microtiter plates at a density of 5×10^3 cells per well. The next day, the medium was replaced with DMEM supplemented with 7.5% DFCS and the cells were treated with the different flavonoids alone or in the presence of 5 mM glutamate. Twenty four hours later, the medium in each well was aspirated and replaced with fresh medium containing 2.5 μg/ml MTT. After 4 hours of incubation at 37° C., cells were solubilized with 100 μl of a solution containing 50% dimethylformamide and 20% SDS (pH 4.7). The absorbance at 570 nm was measured on the following day with a microplate reader (Molecular Devices). Results obtained from the MTT assay correlated directly with the extent of cell death as confirmed visually. Controls employing wells without cells were used to determine the effects of the agents upon the assay chemistry.

Male C57Bl/6J mice = assay: Object recognition task; assay type: in vivo; conditions: 60 minutes prior to training, vs vehicle
Description: The effect of fisetin, 3,3′,4′-THF, and apigenin (5,7,4′-THF) on memory was tested in mice using an object recognition task (Ennaceur and Delacour, Behav. Brain Res., 31:47-59, 1988). Among the alternatives available for testing memory, this assay has proven very effective for measuring CREB-dependent functions (Prickaerts et al., Neurosci., 113:351-61, 2002; Bourtchouladze et al., Proc. Natl. Acad. Sci. USA, 100:10518-22, 2003). In this test, mice are presented with two identical objects during the training period which they explore for a fixed time period. To test for memory, mice are presented one day later with two different objects, one of which was presented previously during the training and is thus familiar to the mice, and the other that is novel. The better a mouse remembers the familiar object, the more time it will spend exploring the novel object. To test the effects of fisetin, 3,3′,4′-THF, or apigenin (5,7,4′-THF) in this memory task, the respective compound was administered orally to the mice before the start of the training period. Rolipram, a phosphodiesterase inhibitor that potentiates memory in this assay (Bourtchouladze et al., Proc. Natl. Acad. Sci. USA, 100:10518-22, 2003), requires intraperitoneal injection and was used as a positive control.
Male C57Bl/6J mice (Jackson Laboratories) were used and the testing was done by PsychoGenics (Tarrytown, N.Y.). All mice were acclimated to the colony room for at least 2 weeks prior to testing and were tested at an average age of 8 weeks. Mice were randomly assigned across treatment groups with 10 mice in each group. For each dose tested, a 10× solution of fisetin was prepared in 95% ethanol and then diluted with 4 volumes polyethylene glycol 660 hydroxystearate (Solut HS15 from BASF) and 5 volumes phosphate buffered saline. The vehicle was contained the identical ratios of ethanol, Solut HS15 and phosphate buffered saline. All were administered orally 60 minutes prior to training at a volume of 10 ml/kg body weight. Rolipram was dissolved in 10% DMSO and administered intraperitoneally 20 minutes prior to training. The test was performed as previously described by Bourtchouladze et al. (Proc. Natl. Acad. Sci. USA, 100:10518-22, 2003). Briefly, on Day 1 mice were habituated to a circular open field arena for one hour in cage groups of four. Twenty-four (24) hours later, individual mice were placed back in the same arena which now contained two identical objects for a 15 minutes training trial. […] Each animal's test trial was recorded and the first 10 minutes of each session were scored. […] Data were analyzed by a one-way ANOVA followed by post-hoc comparisons with Fisher's test. […]

GSH = assay: Total cellular GSH levels in HT22 cells; assay type: cell-based, mouse; conditions: 8 hours; for GSH levels in the presence of oxidative stress: 5 mM glutamate
Description: The effects of fisetin derivatives on cellular GSH levels was then determined. HT22 cells were untreated (Ct) or treated with 10 μM fisetin, 25 μM 3,3′-DHF, 25 μM 3,4′-DHF, 2.5 μM 3′,4′-DHF, 2.5 μM 3,3′,4′-THF, 25 μM 3,7,3′-THF, 25 μM 3,7,4′-THF or 10 μM 7,3′,4′-THF alone or in the presence of 5 mM glutamate. After 8 hours cellular levels of total GSH were determined as described in Example 4. The GSH level of the control sample (31.5±10 nmoles/mg protein) was taken as 100%.
Total intracellular GSH/GSSG was determined using whole cell lysates from untreated, glutamate treated, flavonoid treated and glutamate plus flavonoid treated cells as described (Maher and Hanneken, Invest. Opthalmol. Vis. Sci., 46:749-57, 2005, herein incorporated by reference as to the method) and normalized to total cellular protein.

[1] = Mus musculus, HT-22, 24 h, HT22 cells, 24 hours
[2] = Mus musculus, HT22 cells, 24 hours

Compound	effect of higher levels of BSO on protection (HT22 cells; 24 hours, MTT)	EC50 (HT22 cells; [1]) [µM]	Emax (HT22 cells; [2]) [%]	object recognition (Male C57Bl/6J mice; 10 mg/kg oral)	object recognition (Male C57Bl/6J mice; 25 mg/kg oral)	protection from oxidative stress-induced death (HT22 cells; HT22 cells, glutamate)	GSH levels in the presence of oxidative stress (GSH)	basal levels of GSH (GSH; flavonoid alone)	effect of low levels of BSO on protection (HT22 cells; 5 mM glutamate + 50 μM BSO, 24 hours, MTT)	EC50 (HT22 cells; HT22 cells, 24 hours) [µM]	protection from oxidative stress-induced death (HT22 cells; at 2.5 μM) [%]
O=c1c(O)c(-c2ccc(O)c(O)c2)oc2cc(O)ccc12 [fisetin, 3,3′,4′,7-tetrahydroxyflavone]	reduced protection	5	> 90	significant effects	significant effects						
O=c1cc(-c2ccc(O)c(O)c2)oc2ccccc12 [3′,4′-DHF, 3′,4′-dihydroxyflavone]	reduced protection	0.9	> 90			more effective than fisetin; also recorded: equal to or more effective than fisetin	could not maintain GSH levels	raised the basal levels of GSH			
O=c1c(O)c(-c2ccc(O)c(O)c2)oc2ccccc12 [3,3′,4′-THF, 3,3′,4′-trihydroxyflavone]		1	> 90		significantly increased object recognition	equal to or more effective than fisetin	able to maintain GSH levels		significantly reduced protection	0.75	> 85
